Data on 28 compounds can be found in patent US7250410B2, “Cyclic nucleotide phosphodiesterase inhibitors, preparation and uses thereof” (Via Pharmaceuticals, Inc., priority 2001, dated 2007).

Values joined by “and” are separate entries in the source; they are usually repeats but may differ in a detail not shown here. Identical values can stand only once.

For one test, the target named is PDE4. The experiment in a line: Inhibition of PDE4, radioenzymatic phosphodiesterase assay. In kind it is biochemical, bovine. As to conditions: Table 1, formula (III); 1 μM cyclic AMP. Here is the method: A 3 g segment of bovine aortic media cut into pieces with scissors was homogenized with an ultra-turrax then a potter glass/glass homogenizer in 7 volumes by weight of buffer A containing a protease inhibitor cocktail (20 mM Tris-HCl, 0.25 M saccharose, 2 mM magnesium acetate, 1 mM dithiothreitol, 5 mM EGTA, 2000 U/ml aprotinin, 10 mg/l leupeptin and 10 mg/l soya trypsic inhibitor). The homogenizate was centrifuged at 105,000 g for 1 hour. […] The column was washed until there was no detectable absorption at 280 nm, then eluted with a linear gradient of NaCl (0–0.5 M) in buffer B. 3-ml fractions were collected and enzyme activity was determined under the conditions described hereinafter to localize the different enzymes PDE1, PDE3, PDE4 and PDE5, which were aliquoted and frozen at −80° C.
The nucleoside formed was separated from the nucleotides by anion exchange chromatography. Nucleoside radioactivity was determined by liquid scintillation counting.
Broadly, the IC50 is the concentration at which inhibition is half-maximal. A low value points to inhibition by little substance. `COc1cc2c(cc1OC)C(c1ccc(-c3ccccc3OC)cc1)=NN(C)C(=O)C2` [IIIai, 7,8-dimethoxy-1-[4-(2-methoxyphenyl)phenyl]-3-methyl-3,5-dihydro-4H-2,3-benzodiazepin-4-one]: the IC50 stood at 1.8 µM. Same read-out and setting: next, `COc1ccc(-c2ccc(C3=NN(C)C(=O)Cc4cc(OC)c(OC)cc43)cc2)cc1` [IIIao, 7,8-dimethoxy-1-[4-(4-methoxyphenyl)phenyl]-3-methyl-3,5-dihydro-4H-2,3-benzodiazepin-4-one]: 1.7 µM.

Still in this test, the particulars now being: Table 1, formula (III); compound at 10 μM.
With `CCCCCCCCCCCCN1N=C(c2ccccc2)c2cc(OC)c(OC)cc2CC1=O` [IIIad, 3-n-dodecyl-7,8-dimethoxy-1-phenyl-3,5-dihydro-4H-2,3-benzodiazepin-4-one], the “PDE4 percentage inhibition at 10 μM” value is recorded as 3.9%. Still for that read-out and setting: to `COC(=O)CCCCCCCCCCCN1N=C(c2ccccc2)c2cc(OC)c(OC)cc2CC1=O` [IIIae, 7,8-dimethoxy-3-(12-methoxy-12-oxododecyl)-1-phenyl-3,5-dihydro-4H-2,3-benzodiazepin-4-one] belongs 19%.

Staying with this test, now noted: Table 2, formula (XXII); compound at 10 μM.
In the case of `COc1cc2c(cc1OC)C(c1ccccc1)=NC(CC(C)C)C(=O)N2` (stereo not shown) [XXIIad, 7,8-dimethoxy-3-isobutyl-5-phenyl-1,3-dihydro-2H-1,4-benzodiazepin-2-one], the “PDE4 percentage inhibition at 10 μM” value is 14.9%.

Turning to `COc1cc2c(cc1OC)C(c1ccccc1)=NC(Cc1c[nH]cn1)C(=O)N2` (stereo not shown) [XXIIar, 7,8-dimethoxy-3-(1H-imidazol-4-ylmethyl)-5-phenyl-1,3-dihydro-2H-1,4-benzodiazepin-2-one], the “PDE4 percentage inhibition at 10 μM” value is reported as 49.3%. The same measure, in the same setting: to `CCCCN(Cc1ccccc1)C(=O)OC1N=C(c2ccccc2)c2cc(OC)c(OC)cc2NC1=O` [XXIIav, (7,8-dimethoxy-5-phenyl-2-oxo-2,3-dihydro-1H-1,4-benzodiazepin-3-yl)benzyl(S)-butylcarbamate] belongs 23%.

The test is the same for the next values; noted with them: Table 3, formula (II); 1 μM cyclic AMP.
Compound `CCN1C(=O)C(Cc2cc(Cl)ccc2Cl)N=C(c2ccccc2)c2cc(OC)c(OC)cc21` (stereo not shown) [IIdi, 3-(2,5-dichlorobenzyl)-7,8-dimethoxy-1-ethyl-5-phenyl-1,3-dihydro-2H-1,4-benzodiazepin-2-one] showed an IC50 of 8.15 µM. On the same count and under the same terms, to “[(7,8-dimethoxy-1-ethyl-2-oxo-2,3-dihydro-1H-1,4-benzodiazepin-3-yl)benz-2-yl]carboxamide [IIci]” belongs 1.45 µM. Still for that read-out and setting: to `CCN1C(=O)C(Cc2cccc(C(F)(F)F)c2)N=C(c2ccccc2)c2cc(OC)c(OC)cc21` (stereo not shown) [IIdb, 1-ethyl-7,8-dimethoxy-5-phenyl-3-[3-(trifluoromethyl)benzyl]-1,3-dihydro-2H-1,4-benzodiazepin-2-one] belongs 23 µM; to `COc1cc2c(cc1OC)N(C)C(=O)CN=C2c1ccc2[nH]ccc2c1` [IIan, 5-(5-indolyl)-7,8-dimethoxy-1-methyl-1,3-dihydro-1,4-benzodiazepin-2-one], 3.6 µM; to `COc1cc2c(cc1OC)N(C)C(=O)CN=C2c1cccc(Br)c1` [IIax, 5-(3-bromophenyl)-7,8-dimethoxy-1-methyl-1,3-dihydro-2H-1,4-benzodiazepin-2-one], 8.2 µM. In the case of `CCN1C(=O)CN=C(c2ccc(Br)cc2)c2cc(OC)c(OC)cc21` [IIbl, 5-(4-bromophenyl)-1-ethyl-7,8-dimethoxy-1,3-dihydro-2H-1,4-benzodiazepin-2-one], the IC50 is 15 µM. Still for that read-out and setting: next, `CCN1C(=O)C(Cc2cccc(OC)c2)N=C(c2ccccc2)c2cc(OC)c(OC)cc21` (stereo not shown) [IIdc, 1-ethyl-7,8-dimethoxy-3-(3-methoxybenzyl)-5-phenyl-1,3-dihydro-2H-1,4-benzodiazepin-2-one]: 5.1 µM; `CCN1C(=O)CN=C(c2ccc(C#Cc3ccccc3)cc2)c2cc(OC)c(OC)cc21` [IIbr, 1-ethyl-7,8-dimethoxy-5-[4-(phenylethynyl)phenyl]-1,3-dihydro-2H-1,4-benzodiazepin-2-one]: 6.6 µM and 3.8 µM; `CCOc1cc2c(cc1OCC)N(CC)C(=O)C(Cc1ccccc1)N=C2c1ccccc1` (stereo not shown) [IIcv, 3-benzyl-7,8-diethoxy-1-ethyl-5-phenyl-1,3-dihydro-2H-1,4-benzodiazepin-2-one]: 3.1 µM. On the same count and under the same terms, next, `COc1cc2c(cc1OC)N(C)C(=O)CN=C2c1ccc(Br)cc1` [IIba, 5-(4-bromophenyl)-7,8-dimethoxy-1-methyl-1,3-dihydro-2H-1,4-benzodiazepin-2-one]: 17 µM; `CCN1C(=O)C(Cc2ccccc2OC)N=C(c2ccccc2)c2cc(OC)c(OC)cc21` (stereo not shown) [IIcr, 1-ethyl-7,8-dimethoxy-3-(2-methoxybenzyl)-5-phenyl-1,3-dihydro-2H-1,4-benzodiazepin-2-one]: 2.7 µM.

The test is the same for the next values; noted with them: Table 3, formula (II); compound at 10 μM.
As for `CCN1C(=O)C(C/C=C/c2ccccc2)N=C(c2ccccc2)c2cc(OC)c(OC)cc21` (stereo not shown) [IIbz, 7,8-dimethoxy-1-ethyl-3-(E-3-phenylpropen-2yl)-5-phenyl-1,3-dihydro-2H-1,4-benzodiazepin-2-one], the “PDE4 percentage inhibition at 10 μM” value is 42.3%. Regarding `CCN1C(=O)C(Cc2ccc(-c3ccccc3)cc2)N=C(c2ccccc2)c2cc(OC)c(OC)cc21` (stereo not shown) [IIck, 3-(1,1′-biphenyl-4-ylmethyl)-1-ethyl-7,8-dimethoxy-5-phenyl-1,3-dihydro-2H-1,4-benzodiazepin-2-one], the “PDE4 percentage inhibition at 10 μM” value stood at 32.2%. The same measure, in the same setting: to `CCN1C(=O)CN=C(c2cccc(C#Cc3ccccc3)c2)c2cc(OC)c(OC)cc21` [IIbw, 1-ethyl-7,8-dimethoxy-5-[3-(phenylethynyl)phenyl]-1,3-dihydro-2H-1,4-benzodiazepin-2-one] belongs 46.1%; to `COc1cc2c(cc1OC)N(C)C(=O)CN=C2c1cc(C(F)(F)F)cc(C(F)(F)F)c1` [IIaf, 7,8-dimethoxy-1-methyl-5-(3, 5 bistrifluoromethylphenyl)-1,3-dihydro-2H-1,4-benzodiazepin-2-one], 11.7%. Take `COc1cc2c(cc1OC)N(C)C(=O)CN=C2c1ccc(F)cc1` [IIad, 7,8-dimethoxy-5-(4-fluorophenyl)-1-methyl-1,3-dihydro-2H-1,4-benzodiazepin-2-one]: the “PDE4 percentage inhibition at 10 μM” value came to 23%. On the same count and under the same terms, to `COc1cc2c(cc1OC)C(c1ccccc1)=NC(c1ccccc1CNC(C)=O)C(=O)N2` (stereo not shown) [IIcf, N-[2-(7,8-dimethoxy-2-oxo-5-phenyl-2,3-dihydro-1H-1,4-benzodiazepin-3-yl)benzyl]acetamide] belongs 21%; to `COc1cc2c(cc1OC)N(C)C(=O)CN=C2N1CCc2ccccc2C1` [IIav, 7,8-dimethoxy-1-methyl-5-(N-tetrahydro-1,2,3,4-isoquinolyl)-1,3-dihydro-2H-1,4-benzodiazepin-2-one], 15%.

With `COc1ccc2c(c1)N(C)C(=O)CN=C2c1ccccc1` [IIdm, 8-methoxy-1-methyl-5-phenyl-1,3-dihydro-2H-1,4-benzodiazepin-2-one], the “PDE4 percentage inhibition at 10 μM” value is given as 16%. On the same count and under the same terms, next, `C#CCC1N=C(c2ccccc2)c2cc(OC)c(OC)cc2N(CC)C1=O` (stereo not shown) [IIbt, 1-ethyl-7,8-dimethoxy-5-phenyl-3-prop-2-ynyl-1,3-dihydro-2H-1,4-benzodiazepin-2-one]: 38.4%.

Still in this test, the particulars now being: Table 3, formula (II); compound at 10 μM; 10 µM.
`CCN1C(=O)C(Cc2ccc(Cl)cc2)N=C(c2ccccc2)c2cc(OC)c(OC)cc21` (stereo not shown) [IIbq, 3-(4-chlorobenzyl)-1-ethyl-7,8-dimethoxy-5-phenyl-1,3-dihydro-2H-1,4-benzodiazepin-2-one]: the “PDE4 percentage inhibition at 10 μM” value is 33.8%.
